Results on twelve compounds are retold here after ChEMBL document CHEMBL1201862, “PubChem BioAssay data set” (2004).

Test systems include ACHN; CAKI-1; DU-145; HT-29; IGROV-1; K562; KM12; MDA-MB-231; MDA-MB-435; Malme-3M; NCI-H23; NCI/ADR-RES; RXF 393; SF-539; SK-MEL-5; SK-OV-3; U-251; MOLT-4.
What all share (test): NCI-60 cell line screen, 48 h

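Step 1: Grow cells in 96-well plates. Step 2: Expose to compound for 48 hours at 5 concentrations. Step 3: Interpolate endpoints linearly; if unreached, use highest concentration. Here, GI50 denotes the concentration required for 50% inhibition of growth.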 Active and inactive are the calls of the source. Rule as the data show it: active = GI50 up to about 1.1 µM and inactive = higher. Square brackets hold non-standard residues; d marks the D form. Peptide text beside a SMILES is read from it. * marks the point of attachment. X26 = COC1=CC(=O)N(C(=O)[C@@H](O*)C(C)C)[C@H]1Cc1ccccc1; NMeV = CN[C@H](C(=O)O)C(C)C; Hexanoyl = CCCCCC(=O)*

Take `Cc1cccc2sc(NC(=O)c3cc([N+](=O)[O-])ccc3Cl)nc12`: the GI50 is 5.41 µM (inactive) in the experiment on ACHN; 3.85 µM (inactive) in the experiment with CAKI-1; 3.33 µM (inactive) with DU-145; 1.85 µM (inactive) in the experiment on HT-29; 2.68 µM (inactive) in the experiment on IGROV-1; > 100 µM (inactive) with K562. Moreover, the GI50 in the experiment with KM12 was 2.42 µM (inactive); with MDA-MB-231, 4.73 µM (inactive); in the experiment with MDA-MB-435, 2.67 µM (inactive); in the experiment with Malme-3M it was 5.38 µM (inactive); in the experiment with NCI-H23, 2.79 µM (inactive); with NCI/ADR-RES it was 2.76 µM (inactive). In addition, the GI50 is 2.01 µM (inactive) in the experiment with RXF 393; 2.36 µM (inactive) in the experiment on SF-539; 1.84 µM (inactive) in the experiment on SK-MEL-5; 13.1 µM (inactive) in the experiment on SK-OV-3; 2.85 µM (inactive) in the experiment on U-251.
As to `Nc1nc(Cl)nc2c1ncn2C1CCC(COP(=O)(O)OP(=O)(O)OP(=O)(O)O)O1` (stereo not given), the GI50 was 25.2 µM (inactive) with ACHN; 6.89 µM (inactive) with CAKI-1; 23.3 µM (inactive) with DU-145; 32 µM (inactive) in the experiment on HT-29; 30.5 µM (inactive) in the experiment with IGROV-1; 32.4 µM (inactive) in the experiment on KM12. Besides, the GI50 with MDA-MB-231 is 26.8 µM (inactive); in the experiment on MDA-MB-435, 23 µM (inactive); with MOLT-4, 65 µM (inactive); in the experiment with Malme-3M it was > 100 µM (inactive); in the experiment on NCI-H23 it was 19.9 µM (inactive); with NCI/ADR-RES, 21.8 µM (inactive). In addition, the GI50 in the experiment on RXF 393 was 24.5 µM (inactive); in the experiment with SF-539, 67.3 µM (inactive); with SK-OV-3 it was 57.3 µM (inactive); in the experiment on U-251 it was 37.5 µM (inactive).
In the case of `COc1cc(-c2cc(=O)c3cc4c(cc3[nH]2)OCO4)cc(OC)c1O`, the GI50 with ACHN, in the experiment with CAKI-1, in the experiment on DU-145, in the experiment on HT-29, in the experiment on IGROV-1 and in the experiment on K562 was > 10 µM (inactive) each time. For the same compound, the GI50 in the experiment with KM12, in the experiment on MDA-MB-231, in the experiment on MDA-MB-435, in the experiment on MOLT-4, in the experiment with NCI-H23 and in the experiment with NCI/ADR-RES was > 10 µM (inactive) throughout. For the same compound, the GI50 with RXF 393, with SF-539, in the experiment on SK-MEL-5, in the experiment on SK-OV-3 and in the experiment on U-251 was > 10 µM (inactive) in each case.
On to `N#Cc1ccc(/N=N/N2CCCC2)cc1`, for which the GI50 was > 100 µM (inactive) in the experiment on ACHN; > 100 µM (inactive) with CAKI-1; 20.8 µM (inactive) in the experiment on DU-145; > 100 µM (inactive) in the experiment with IGROV-1; 91 µM (inactive) with K562; > 100 µM (inactive) with KM12. Further, the GI50 was > 100 µM (inactive) with MDA-MB-231; > 100 µM (inactive) in the experiment with MDA-MB-435; 61.2 µM (inactive) in the experiment with MOLT-4; 95.1 µM (inactive) in the experiment with NCI-H23; > 100 µM (inactive) with NCI/ADR-RES; > 100 µM (inactive) in the experiment on RXF 393. The GI50 in the experiment on SF-539 is > 100 µM (inactive); in the experiment on SK-MEL-5, 86.3 µM (inactive); with SK-OV-3, > 100 µM (inactive); in the experiment on U-251, > 100 µM (inactive).
On to `O=C(NCCCCN(CCCNC(=O)C(F)(F)F)Cc1ccccc1)C(F)(F)F`, for which the GI50 is > 100 µM (inactive) in the experiment on ACHN; > 100 µM (inactive) in the experiment with DU-145; > 100 µM (inactive) in the experiment on HT-29; 25.2 µM (inactive) with IGROV-1; > 100 µM (inactive) in the experiment with K562; > 100 µM (inactive) in the experiment with KM12. Moreover, the GI50 in the experiment on MDA-MB-231, in the experiment with MDA-MB-435, with MOLT-4, with NCI-H23, in the experiment with NCI/ADR-RES and with RXF 393 was > 100 µM (inactive) throughout. For the same compound, the GI50 in the experiment on SF-539, in the experiment with SK-MEL-5, with SK-OV-3 and with U-251 was > 100 µM (inactive) each time.
`[O-][n+]1c2ccccc2[n+]([O-])c2cc(Br)ccc21`: the GI50 in the experiment on ACHN is 4.81 µM (inactive); with CAKI-1, 5.41 µM (inactive); in the experiment with DU-145 it was 24.7 µM (inactive); in the experiment with HT-29 it was 18.6 µM (inactive); with IGROV-1 it was 5.81 µM (inactive); in the experiment with K562, 4.63 µM (inactive). The GI50 was 12.6 µM (inactive) in the experiment on KM12; 24.4 µM (inactive) in the experiment on MDA-MB-231; 18.2 µM (inactive) in the experiment with MDA-MB-435; 0.144 µM (active) with MOLT-4; 23.2 µM (inactive) in the experiment on Malme-3M; 21.5 µM (inactive) in the experiment on NCI-H23. The GI50 in the experiment with NCI/ADR-RES was 16.1 µM (inactive); in the experiment on RXF 393, 18.1 µM (inactive); in the experiment with SF-539, 13.9 µM (inactive); in the experiment on SK-MEL-5 it was 13.3 µM (inactive); in the experiment with U-251 it was 14.6 µM (inactive).
Take `Cc1cc(C)cc(Nc2cc(O)nc(O)n2)c1`: the GI50 in the experiment with ACHN, with DU-145, in the experiment with HT-29, with IGROV-1, with K562 and in the experiment on KM12 was > 100 µM (inactive) throughout. Also, the GI50 with MDA-MB-231, in the experiment with MDA-MB-435, in the experiment with MOLT-4, in the experiment on Malme-3M, in the experiment with NCI-H23 and in the experiment with NCI/ADR-RES was > 100 µM (inactive) throughout. The GI50 in the experiment on RXF 393 was 90.4 µM (inactive); with SF-539, > 100 µM (inactive); with SK-MEL-5, > 100 µM (inactive); in the experiment with U-251, > 100 µM (inactive).
Consider `CC(N)/C(N)=N/O` (stereo not given), for which the GI50 with ACHN, with CAKI-1, in the experiment with DU-145, in the experiment on HT-29, in the experiment with IGROV-1 and in the experiment on K562 was > 100 µM (inactive) each time. For the same compound, the GI50 in the experiment on KM12, with MDA-MB-231, in the experiment with MDA-MB-435, in the experiment on Malme-3M, in the experiment on NCI-H23 and in the experiment with NCI/ADR-RES was > 100 µM (inactive) in each case. Further, the GI50 with RXF 393, in the experiment on SF-539, in the experiment with SK-MEL-5, with SK-OV-3 and in the experiment with U-251 was > 100 µM (inactive) in each case.
Consider `C=CCOC(=O)N1[C@H]2C#C/C=C\C#C[C@]3(O)C(=O)C[C@H](C)[C@]24O[C@]43C2=CC(=O)C=CC21OC` (stereo not given in full), for which the GI50 with ACHN was 20.2 µM (inactive); in the experiment on CAKI-1, 33.1 µM (inactive); with DU-145, 38.7 µM (inactive); in the experiment on HT-29, 27.7 µM (inactive); in the experiment with IGROV-1, 16.7 µM (inactive); in the experiment with K562 it was 42.2 µM (inactive). For the same compound, the GI50 was 32.9 µM (inactive) in the experiment with KM12; 28.3 µM (inactive) with MDA-MB-231; 16.6 µM (inactive) in the experiment with MDA-MB-435; 3.72 µM (inactive) with MOLT-4; 43.7 µM (inactive) in the experiment on Malme-3M; 27.2 µM (inactive) with NCI-H23. For the same compound, the GI50 is 43.8 µM (inactive) in the experiment on NCI/ADR-RES; 20.9 µM (inactive) in the experiment on RXF 393; 20.6 µM (inactive) with SF-539; 60.1 µM (inactive) in the experiment with SK-OV-3; 37.7 µM (inactive) in the experiment on U-251.
As for `COc1ccc(-c2csc(Cc3nc4ccccc4c(=O)n3-c3ccc(Cl)cc3)n2)cc1`, the GI50 is 30.9 µM (inactive) with ACHN; > 100 µM (inactive) with CAKI-1; 84.5 µM (inactive) in the experiment on DU-145; 35.6 µM (inactive) in the experiment on HT-29; 32.7 µM (inactive) with IGROV-1; 14.6 µM (inactive) with K562. The GI50 was 31 µM (inactive) in the experiment with KM12; 60.7 µM (inactive) with MDA-MB-231; 28.5 µM (inactive) in the experiment with MDA-MB-435; 20 µM (inactive) in the experiment with MOLT-4; > 100 µM (inactive) with Malme-3M; 28.8 µM (inactive) in the experiment on NCI-H23. The GI50 is 56.1 µM (inactive) in the experiment on NCI/ADR-RES; > 100 µM (inactive) with RXF 393; 19.3 µM (inactive) in the experiment on SK-MEL-5; > 100 µM (inactive) in the experiment with SK-OV-3; 32.2 µM (inactive) in the experiment with U-251.
On to `CCCCCC(=O)N[C@H](C(=O)N[C@H](C(=O)N(C)[C@H](C(=O)N1CCC[C@H]1C(=O)N1CCC[C@H]1C(=O)O[C@H](C(=O)N1C(=O)C=C(OC)[C@@H]1Cc1ccccc1)C(C)C)C(C)C)C(C)C)C(C)C` (Hexanoyl-VV[NMeV]PP-X26), for which the GI50 is > 100 µM (inactive) in the experiment with ACHN; > 100 µM (inactive) with CAKI-1; > 100 µM (inactive) in the experiment with DU-145; > 100 µM (inactive) with HT-29; > 100 µM (inactive) in the experiment on IGROV-1; 71.1 µM (inactive) with K562. Also, the GI50 in the experiment with KM12 is > 100 µM (inactive); in the experiment on MDA-MB-231 it was 34.2 µM (inactive); in the experiment with MDA-MB-435, 36.2 µM (inactive); in the experiment on MOLT-4, 63 µM (inactive); in the experiment with Malme-3M, > 100 µM (inactive); in the experiment on NCI-H23, > 100 µM (inactive). In addition, the GI50 with NCI/ADR-RES is > 100 µM (inactive); in the experiment with RXF 393, 23.2 µM (inactive); with SF-539, 36.9 µM (inactive); in the experiment with SK-OV-3, > 100 µM (inactive); in the experiment on U-251 it was 43.8 µM (inactive).
Consider `CC(C)CCC[C@@H](C)[C@H]1CCC2C3CC=C4C[C@@H](Oc5c6ccccc6nc6ccccc56)CCC4C3CCC21` (stereo not given in full), for which the GI50 with ACHN, in the experiment on CAKI-1, with DU-145, with HT-29, in the experiment on IGROV-1 and with K562 was > 50 µM (inactive) throughout. For the same compound, the GI50 with KM12 was > 50 µM (inactive); in the experiment on MDA-MB-231, 39.9 µM (inactive); with MDA-MB-435, > 50 µM (inactive); in the experiment with Malme-3M it was > 50 µM (inactive); in the experiment with NCI-H23, > 50 µM (inactive); with NCI/ADR-RES, > 50 µM (inactive). Also, the GI50 in the experiment with RXF 393, in the experiment on SF-539, with SK-MEL-5, with SK-OV-3 and with U-251 was > 50 µM (inactive) each time.
